Test results from PubChem BioAssay AID248 (DTP/NCI, 2004).
Several values for one entry are separate records, joined by “and”; a condition that tells them apart may be missing. Equal entries are not always repeated. Toxic doses and inconclusive results are not listed.

System: L1210 leukemia ip in BDF1 mice, survival T/C
Experiment: NCI In Vivo Anticancer Drug Screen. Data for tumor model L1210 Leukemia (intraperitoneal) in B6D2F1 (BDF1) mice
Conditions: endpoint: mean survival time, higher = longer survival
Outline: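 Each compound was tested against a transplantable tumor grown in mice. The endpoint was survival, with treated animals benchmarked against vehicle controls as a simple ratio.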

[1] = dose: 100.0 mg/kg/injection, schedule: Q01DX001 (ip), vehicle: Klucel (hydroxypropylcellulose) (HPC)
[2] = dose: 100.0 mg/kg/injection, schedule: Q01DX009 (ip), vehicle: Klucel (hydroxypropylcellulose) (HPC)
[3] = dose: 100.0 mg/kg/injection, schedule: Q04DX003 (ip), vehicle: Klucel (hydroxypropylcellulose) (HPC)
[4] = dose: 200.0 mg/kg/injection, schedule: Q01DX001 (ip), vehicle: Klucel (hydroxypropylcellulose) (HPC)
[5] = dose: 200.0 mg/kg/injection, schedule: Q01DX009 (ip), vehicle: Klucel (hydroxypropylcellulose) (HPC)
[6] = dose: 200.0 mg/kg/injection, schedule: Q04DX003 (ip), vehicle: Klucel (hydroxypropylcellulose) (HPC)
[7] = dose: 400.0 mg/kg/injection, schedule: Q01DX001 (ip), vehicle: Klucel (hydroxypropylcellulose) (HPC)
[8] = dose: 400.0 mg/kg/injection, schedule: Q01DX009 (ip), vehicle: Klucel (hydroxypropylcellulose) (HPC)
[9] = dose: 400.0 mg/kg/injection, schedule: Q04DX003 (ip), vehicle: Klucel (hydroxypropylcellulose) (HPC)
[10] = dose: 100.0 mg/kg/injection, schedule: Q01DX001 (ip), vehicle: saline
[11] = dose: 200.0 mg/kg/injection, schedule: Q01DX001 (ip), vehicle: saline
[12] = dose: 100.0 mg/kg/injection, schedule: Q04DX002 (ip), vehicle: saline
[13] = dose: 200.0 mg/kg/injection, schedule: Q04DX002 (ip), vehicle: saline
[14] = dose: 400.0 mg/kg/injection, schedule: Q04DX002 (ip), vehicle: saline
[15] = dose: 50.0 mg/kg/injection, schedule: Q01DX001 (ip), vehicle: saline
[16] = dose: 100.0 mg/kg/injection, schedule: Q01DX009 (ip), vehicle: saline with Tween-80
[17] = dose: 200.0 mg/kg/injection, schedule: Q01DX009 (ip), vehicle: saline with Tween-80
[18] = dose: 50.0 mg/kg/injection, schedule: Q01DX009 (ip), vehicle: saline with Tween-80
[19] = dose: 25.0 mg/kg/injection, schedule: Q01DX009 (ip), vehicle: Klucel (hydroxypropylcellulose) (HPC)

CCOC(=O)Nc1cc(Cl)ccc1C
T/C [1]: 101 % of control | T/C [2]: 102 % of control | T/C (dose: 100.0 mg/kg/injection, schedule: Q04DX002 (ip), vehicle: Klucel (hydroxypropylcellulose) (HPC)): 97 % of control and 100 % of control | T/C [3]: 103 % of control | T/C [4]: 102 % of control | T/C [5]: 102 % of control | T/C (dose: 200.0 mg/kg/injection, schedule: Q04DX002 (ip), vehicle: Klucel (hydroxypropylcellulose) (HPC)): 100 % of control and 104 % of control | T/C [6]: 107 % of control | T/C [7]: 111 % of control | T/C [8]: 96 % of control | T/C (dose: 400.0 mg/kg/injection, schedule: Q04DX002 (ip), vehicle: Klucel (hydroxypropylcellulose) (HPC)): 103 % of control and 110 % of control | T/C [9]: 96 % of control

COc1ccc(S(=O)(=O)N=[N+]=[N-])cc1
T/C [10]: 103 % of control | T/C [11]: 95 % of control

O=C(C1CC=CCC1)N1CCCC1 (centres undefined)
T/C [12]: 101 % of control | T/C [13]: 104 % of control | T/C [14]: 104 % of control

C1CC2CC2CCC2CC12 (centres undefined)
T/C [2]: 104 % of control | T/C [3]: 101 % of control | T/C [5]: 95 % of control | T/C [6]: 95 % of control | T/C [8]: 102 % of control | T/C [9]: 101 % of control

O=NN(Cc1cnc2[nH]c(=O)[nH]c(=O)c2n1)c1ccc(C(=O)NC(CCC(=O)O)C(=O)O)cc1 (centres undefined)
T/C (dose: 3.13 mg/kg/injection, schedule: Q01DX009 (ip), vehicle: water): 100 % of control | T/C (dose: 6.25 mg/kg/injection, schedule: Q01DX009 (ip), vehicle: water): 102 % of control | T/C (dose: 12.5 mg/kg/injection, schedule: Q01DX009 (ip), vehicle: water): 88 % of control | T/C (dose: 25.0 mg/kg/injection, schedule: Q01DX009 (ip), vehicle: water): 98 % of control | T/C (dose: 50.0 mg/kg/injection, schedule: Q01DX009 (ip), vehicle: water): 93 % of control

COc1cc2cc(C)[nH]c2cc1OC
T/C [15]: 101 % of control | T/C [10]: 95 % of control | T/C [11]: 98 % of control

COc1ccc(OC)c(NC(=O)c2cccc3ccccc23)c1
T/C (dose: 50.0 mg/kg/injection, schedule: Q01DX001 (ip), vehicle: saline with Tween-80): 102 % of control | T/C (dose: 100.0 mg/kg/injection, schedule: Q01DX001 (ip), vehicle: saline with Tween-80): 91 % of control | T/C [16]: 93 % of control and 96 % of control | T/C (dose: 100.0 mg/kg/injection, schedule: Q04DX002 (ip), vehicle: saline with Tween-80): 100 % of control and 91 % of control | T/C (dose: 100.0 mg/kg/injection, schedule: Q04DX003 (ip), vehicle: saline with Tween-80): 95 % of control | T/C (dose: 200.0 mg/kg/injection, schedule: Q01DX001 (ip), vehicle: saline with Tween-80): 95 % of control | T/C [17]: 105 % of control and 90 % of control | T/C (dose: 200.0 mg/kg/injection, schedule: Q04DX002 (ip), vehicle: saline with Tween-80): 113 % of control and 91 % of control | T/C (dose: 200.0 mg/kg/injection, schedule: Q04DX003 (ip), vehicle: saline with Tween-80): 95 % of control | T/C (dose: 400.0 mg/kg/injection, schedule: Q01DX009 (ip), vehicle: saline with Tween-80): 87 % of control and 91 % of control | T/C (dose: 400.0 mg/kg/injection, schedule: Q04DX002 (ip), vehicle: saline with Tween-80): 94 % of control and 95 % of control | T/C (dose: 400.0 mg/kg/injection, schedule: Q04DX003 (ip), vehicle: saline with Tween-80): 94 % of control

COc1ccc(OC)c(/C=N\NC(=O)c2ccccc2N(C)C)c1
T/C (dose: 100.0 mg/kg/injection, schedule: Q04DX002 (ip), vehicle: gum acacia): 100 % of control | T/C (dose: 200.0 mg/kg/injection, schedule: Q04DX002 (ip), vehicle: gum acacia): 90 % of control | T/C (dose: 400.0 mg/kg/injection, schedule: Q04DX002 (ip), vehicle: gum acacia): 103 % of control

Nc1nc2c(nnn2C2CC(O)C(COP(=O)(O)O)O2)c(=O)[nH]1 (centres undefined)
T/C [1]: 96 % of control | T/C [4]: 91 % of control | T/C [7]: 94 % of control

NC(CC(=O)N/C=N\O)C(=O)O (centres undefined)
T/C [15]: 98 % of control | T/C [10]: 102 % of control | T/C [11]: 104 % of control | T/C (dose: 400.0 mg/kg/injection, schedule: Q01DX001 (ip), vehicle: saline): 104 % of control

COC1OC(CO)C(O)C(OS(C)(=O)=O)C1OS(C)(=O)=O (centres undefined)
T/C [12]: 104 % of control | T/C [13]: 104 % of control | T/C [14]: 93 % of control

CCCC(C)C(=NC)Nc1ccc(Cl)c(Cl)c1 (centres undefined)
T/C (dose: 11.1 mg/kg/injection, schedule: Q01DX Z (ip), vehicle: methylcellulose (MC)): 91 % of control | T/C (dose: 16.6 mg/kg/injection, schedule: Q01DX Z (ip), vehicle: methylcellulose (MC)): 95 % of control

Cc1cc(C)c(S(=O)(=O)O)cc1C
T/C (dose: 50.0 mg/kg/injection, schedule: Q01DX009 (ip), vehicle: saline): 92 % of control | T/C (dose: 100.0 mg/kg/injection, schedule: Q01DX009 (ip), vehicle: saline): 92 % of control | T/C (dose: 100.0 mg/kg/injection, schedule: Q04DX003 (ip), vehicle: saline): 98 % of control | T/C (dose: 200.0 mg/kg/injection, schedule: Q01DX009 (ip), vehicle: saline): 88 % of control

CC(C)(C)c1ccc(C(=O)C2CC2)cc1
T/C [18]: 90 % of control | T/C [16]: 92 % of control

OC1(C#CI)CCCCC1
T/C [2]: 100 % of control | T/C [5]: 96 % of control

c1cc(-c2sc(-c3ccncc3)c(-c3ccncc3)c2-c2ccncc2)ccn1
T/C [1]: 107 % of control | T/C [4]: 98 % of control | T/C [7]: 98 % of control

COc1cc(Cc2cc(OC)c(O)c(OC)c2)cc(OC)c1O
T/C [2]: 107 % of control | T/C [3]: 92 % of control | T/C [5]: 93 % of control | T/C [6]: 97 % of control | T/C [8]: 101 % of control | T/C [9]: 95 % of control

CCc1ccc(NC(=O)CCC(=O)O)cc1
T/C [2]: 102 % of control | T/C [5]: 93 % of control | T/C [8]: 90 % of control

Cc1cccn2c(=O)c(/C=N\NC(N)=S)c(Cl)nc12
T/C (dose: 100.0 mg/kg/injection, schedule: Q01DX001 (ip), vehicle: carboxymethylcellulose (CMC)): 105 % of control | T/C (dose: 200.0 mg/kg/injection, schedule: Q01DX001 (ip), vehicle: carboxymethylcellulose (CMC)): 96 % of control | T/C (dose: 400.0 mg/kg/injection, schedule: Q01DX001 (ip), vehicle: carboxymethylcellulose (CMC)): 94 % of control

O=C1C=CC(=Nc2cc(Cl)c(O)c(Cl)c2)C(Cl)=C1
T/C (dose: 12.5 mg/kg/injection, schedule: Q01DX009 (ip), vehicle: Klucel (hydroxypropylcellulose) (HPC)): 96 % of control | T/C [19]: 96 % of control | T/C (dose: 50.0 mg/kg/injection, schedule: Q01DX009 (ip), vehicle: Klucel (hydroxypropylcellulose) (HPC)): 92 % of control

CC(=O)Nc1ccc2c(Nc3ccc(NS(C)(=O)=O)cc3)c3ccccc3nc2c1
T/C (dose: 0.8 mg/kg/injection, schedule: Q01DX009 (ip), vehicle: Klucel (hydroxypropylcellulose) (HPC)): 151 % of control | T/C (dose: 1.5 mg/kg/injection, schedule: Q01DX009 (sc), vehicle: saline): 156 % of control | T/C (dose: 1.6 mg/kg/injection, schedule: Q01DX009 (ip), vehicle: Klucel (hydroxypropylcellulose) (HPC)): 159 % of control | T/C (dose: 3.1 mg/kg/injection, schedule: Q01DX009 (ip), vehicle: Klucel (hydroxypropylcellulose) (HPC)): 180 % of control | T/C (dose: 5.4 mg/kg/injection, schedule: Q01DX009 (ip), vehicle: saline with Tween-80): 228 % of control | T/C (dose: 6.25 mg/kg/injection, schedule: Q01DX009 (ip), vehicle: Klucel (hydroxypropylcellulose) (HPC)): 281 % of control | T/C (dose: 8.0 mg/kg/injection, schedule: Q01DX009 (ip), vehicle: saline with Tween-80): 176 % of control | T/C (dose: 12.0 mg/kg/injection, schedule: Q01DX009 (ip), vehicle: saline with Tween-80): 171 % of control | T/C (dose: 12.5 mg/kg/injection, schedule: Q01DX009 (ip), vehicle: saline with Tween-80): 165 % of control | T/C (dose: 12.5 mg/kg/injection, schedule: Q01DX009 (sc), vehicle: saline): 152 % of control | T/C (dose: 18.0 mg/kg/injection, schedule: Q01DX009 (ip), vehicle: saline with Tween-80): 93 % of control | T/C [19]: 93 % of control

CCOc1ccc(Nc2cccc(O)c2)cc1
T/C [18]: 95 % of control | T/C [16]: 103 % of control | T/C [17]: 95 % of control
